According to US20240335431A1, “1-H-PYRROLO[2,3-c]PYRIDINE COMPOUNDS” (Acerta Pharma B.V., priority 2023, published 2024):

Columns and labels:
[1] = test system: MOLM-13 cells; assay: Proliferation assay, MOLM-13 (CellTiter-Glo, 7 days); assay type: cell-based, human; conditions: Homo sapiens, MOLM-13, 168 h
How it was run: (§1)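 Cells seeded at 125 (MOLM-13), 300 (MV4;11), 75 (OCI-AML3) or 200 (HEL) per well were exposed to 3.16-fold compound dilutions (0.1% DMSO) for 7 days at 37° C. Viability by CellTiter-Glo luminescence, normalized to DMSO (100%) and day-0 plate (0%); IC50 from one-site dose-response fit.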

[2] = test system: MV4;11 cells; assay: Proliferation assay, MV4;11 (CellTiter-Glo, 7 days); assay type: cell-based, human; conditions: Homo sapiens, MV4-11, 168 h, read-out: MV-4-11 IC50
How it was run: as §1

[3] = test system: HEL cells; assay: Proliferation assay, HEL control cell line (CellTiter-Glo, 7 days); assay type: cell-based, human; conditions: Homo sapiens, HEL, 168 h
How it was run: as §1

[4] = Caco-2 cell monolayers intrinsic permeation assay in the presence of efflux inhibitors; assay type: in vitro ADME; conditions: Caco-2, with efflux inhibitors
How it was run: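 Caco-2 monolayers grown 14–18 days on Transwells; compound dosed apically in HBSS with efflux inhibitors (Zosuquidar, Benzbromarone, KO-143), inhibitors also basolateral, 37 °C with shaking. Sampled at 0, 45 and 120 min, analysed by LC/MS/MS; apical-to-basolateral Papp (cm/s) calculated.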

Structure (SMILES)	IC50 [1] [nM]	IC50 [2] [nM]	Papp A→B [4] [×10⁻⁶ cm/s]	IC50 [3] [nM]
CC(C)N(C(=O)c1cc(F)ccc1-n1cc(C(=O)C2CN(C(=O)[C@H]3N[C@@H]4CC[C@H]3C4)C2)c2ccncc21)C(C)C [Example 5, 2-(3-(1-((1R,3S,4S)-2-Azabicyclo[2.2.1]heptane-3-carbonyl)azetidine-3-carbonyl)-1H-pyrrolo[2,3-c]pyridin-1-yl)-5-fluoro-N,N-diisopropylbenzamide]	74	85	1.2	> 10000
CCN(C(=O)c1cc(F)ccc1-n1cc(C(=O)C2CN(C(=O)[C@H]3NC4CCC3CC4)C2)c2ccncc21)C(C)C [Example 9, (S)-2-(3-(1-(2-Azabicyclo[2.2.2]octane-3-carbonyl)azetidine-3-carbonyl)-1H-pyrrolo[2,3-c]pyridin-1-yl)-N-ethyl-5-fluoro-N-isopropylbenzamide]	121	100	0.5	> 10000
CC(C)N(C(=O)c1cc(F)ccc1-n1cc(C(=O)C2CCN(C(=O)[C@H]3N[C@@H]4CC[C@H]3C4)CC2)c2c(F)cncc21)C(C)C.O=CO [Example 44, 2-(3-(1-((1R,3S,4S)-2-Azabicyclo[2.2.1]heptane-3-carbonyl)piperidine-4-carbonyl)-4-fluoro-1H-pyrrolo[2,3-c]pyridin-1-yl)-5-fluoro-N,N-diisopropylbenzamide 1·formic acid]	73	65	1	> 10000
CC(C)N(C(=O)c1cc(F)ccc1-n1cc(C(=O)C2CCN(C(=O)[C@@H]3CC4(CC4)CN3)CC2)c2ccncc21)C(C)C [Example 26, (S)-2-(3-(1-(5-Azaspiro[2.4]heptane-6-carbonyl)piperidine-4-carbonyl)-1H-pyrrolo[2,3-c]pyridin-1-yl)-5-fluoro-N,N-diisopropylbenzamide]	103	50	0.8	> 10000

These reach a lower IC50 [1]. Values come first.

IC50 [1] [nM]	IC50 [2] [nM]	Papp A→B [4] [×10⁻⁶ cm/s]	Structure (SMILES)	IC50 [3] [nM]
60	43	0.6	CC(C)n1nccc1-c1cc(F)ccc1-n1cc(C(=O)C2CCN(C(=O)[C@H]3N[C@@H]4CC[C@H]3C4)CC2)c2ccncc21 [Example 36, (1-((1R,3S,4S)-2-Azabicyclo[2.2.1]heptane-3-carbonyl)piperidin-4-yl)(1-(4-fluoro-2-(1-isopropyl-1H-pyrazol-5-yl)phenyl)-1H-pyrrolo[2,3-c]pyridin-3-yl)methanone]	> 10000
68	34	1	CC(C)c1ncncc1-c1cc(F)ccc1-n1cc(C(=O)C2CCN(C(=O)[C@H]3N[C@@H]4CC[C@H]3C4)CC2)c2ccncc21 [Example 37, (1-((1R,3S,4S)-2-Azabicyclo[2.2.1]heptane-3-carbonyl)piperidin-4-yl)(1-(4-fluoro-2-(4-isopropylpyrimidin-5-yl)phenyl)-1H-pyrrolo[2,3-c]pyridin-3-yl)methanone]	> 10000
38	32	0.1	CCN(C(=O)c1cc(F)ccc1-n1cc(C(=O)C2CCN(C(=O)[C@H]3N[C@@H]4CC[C@H]3C4)CC2)c2ccncc21)C(C)C [Example 31, 2-(3-(1-((1R,3S,4S)-2-Azabicyclo[2.2.1]heptane-3-carbonyl)piperidine-4-carbonyl)-1H-pyrrolo[2,3-c]pyridin-1-yl)-N-ethyl-5-fluoro-N-isopropylbenzamide]	> 10000
